The IC50 is the midpoint of a concentration-inhibition curve. A word on the solubility: it is the dissolved amount per volume that the medium holds.

Data on 3 molecules can be found in patent US20240174690A1, “ANNULATED 2-AMINO-3-CYANO THIOPHENES AND DERIVATIVES FOR THE TREATMENT OF CANCER” (BOEHRINGER INGELHEIM INTERNATIONAL GMBH, priority 2021, published 2024).

One data set concerns MKN1 cells. As to the kind of experiment: MKN1 CTG proliferation assay (120 h) (gastric cancer, wt amplified). In kind it is cell-based. Conditions: Homo sapiens. On the procedure: MKN1 CTG Proliferation Assay (120 h) (Gastric Cancer, Wt Amplified)
MKN1 cells (JCRB0252) are dispensed into white 384-well plates, flat and white bottom (Corning Costar, PNr.: 3570) at a density of 400 cells per well in 50 μL RPMI 1640 (PAN-Biotech, PNr.: P04-18047)+10% FCS (HyClone, PNr.: SH30084.03) (assay 1) or into white 384-well plates, flat and white bottom (Perkin Elmer, 6007680) at a density of 500 cells per well in 40 μl RPMI (Gibco, PNr.: 21875034)+10% FCS (HyClone, PNr.: SH30084.03) (assay 2) or into black 384-well plates, flat and clear bottom (Greiner, PNr. 781091) at a density of 200 cells per well in 60 μl RPMI-1640 (Gibco #A10491)+10% FCS (HyClone, PNr.: SH30084.03)+PenStrep (Gibco, PNr.15140-122) (assay 3). […] Compounds (10 mM stock in DMSO) are added at logarithmic dose series using the HP Digital Dispenser D300 (Tecan) (assay 1+2) or the ECHO acoustic liquid handler system (Beckman Coulter) (assay 3), including DMSO controls and normalizing for added DMSO. Plates are incubated for 120 h, and cell viability is measured using CellTiter-Glo luminescent cell viability reagent (Promega product code G7570). Viability (stated as percent of control) is defined as relative luminescence units RLU of each well divided by the RLU of cells in DMSO controls. IC50 values are determined from viability measurements by non-linear regression using a four-parameter model.

A further data set addresses KRAS (WT)::SOS1 (Homo sapiens (Human), UniProt P01116, C118S). As to the kind of experiment: KRAS::SOS1 AlphaScreen binding assay, KRAS WT. The text has this: This assay can be used to examine the potency with which compounds according to the invention binding to (mutated) KRAS inhibit the protein-protein interaction between SOS1 and (mutated) KRAS e.g., KRAS WT, KRAS G12C, KRAS G12D, KRAS G12V, KRAS G13D. […] Low IC50 values in this assay setting are indicative of strong inhibition of protein-protein interaction between SOS1 and KRAS:
These assays measure the inhibitory effect of compounds on KRAS mutant protein-protein interactions using the Alpha Screen technology by Perkin Elmer.
The following (mutant) enzyme forms of KRAS and interacting proteins are used in these assays at the given concentrations: • KRAS (G12D) 1-169, N-terminal 6His-tag, C-terminal avi-tag (Xtal BioStructures, Inc.); final assay concentration 10 nM and SOS1 564-1049, N-terminal 229 GST-tag, TEV cleavage site (Viva Biotech Ltd); final assay concentration 5 nM; • KRAS (G12C) 1-169, N-terminal 6His-tag for purification, cleaved off, C-terminal avi-tag, biotinylated, mutations: C51S, C80L, C118S (in house); final assay concentration 7.5 nM and SOS1 564-1049, N-terminal 229 GST-tag, TEV cleavage site (Viva Biotech Ltd); final assay concentration 5 nM; • KRAS (G12V) 1-169, N-terminal 6His-tag for purification, cleaved off, C-terminal avi-tag, biotinylated, TEV cleavage site, mutation: C118S, GDP loaded (in house); final assay concentration 10 nM and SOS1 564-1049, N-terminal 229 GST-tag, TEV cleavage site (Viva Biotech Ltd); final assay concentration 10 nM; • KRAS (G13D) 1-169, N-terminal 6His-tag for purification, cleaved off, C-terminal avi-tag, biotinylated, TEV cleavage site, mutation: C118S, GDP loaded (in house); final assay concentration 10 nM and SOS1 564-1049, N-terminal 229 GST-tag, TEV cleavage site (Viva Biotech Ltd); final assay concentration 10 nM; • KRAS (WT) 1-169, N-terminal 6His-tag for purification, cleaved off, C-terminal avi-tag, biotinylated, TEV cleavage site, mutation: C118S, GDP loaded (in house); final assay concentration 10 nM and SOS1 564-1049, N-terminal 229 GST-tag, TEV cleavage site (Viva Biotech Ltd); final assay concentration 10 nM.
Test compounds dissolved in DMSO are dispensed onto assay plates (Proxiplate 384 PLUS, white, PerkinElmer; 6008289) using an Access Labcyte Workstation with the Labcyte Echo 55×. For the chosen highest assay concentration of 100 μM, 150 nL of compound solution are transferred from a 10 mM DMSO compound stock solution. A series of eleven fivefold dilutions per compound are transferred to the assay plate, compound dilutions are tested in duplicates. DMSO are added as backfill to a total volume of 150 nL.
The assays run on a fully automated robotic system in a darkened room below 100 Lux. To 150 nl of compound dilution 10 μl of a mix including KRAS mutant protein, SOS1 (final assay concentrations see above) and GDP nucleotide (Sigma G7127; final assay concentration 10 μM) in assay buffer (1×PBS, 0.1% BSA, 0.05% Tween 20) are added into columns 1-24.
After 30 minutes incubation time 5 μl of Alpha Screen bead mix in assay buffer are added into columns 1-23. Bead mix consists of AlphaLISA Glutathione Acceptor Beads (PerkinElmer, Cat No AL109) and AlphaScreen Streptavidin Donor Beads (PerkinElmer Cat No 6760002) in assay buffer at a final assay concentration of 10 μg/ml each.
Plates are kept at room temperature in a darkened incubator. After an additional 60 minutes incubation time the signal is measured in a PerkinElmer Envision HTS Multilabel Reader using the AlphaScreen specs from PerkinElmer.
Each plate contains up to 16 wells of a negative control depending on the dilution procedure (platewise or serial) (DMSO instead of test compound; with KRAS mutant::SOS1 GDP mix and bead mix; column 23) and 16 wells of a positive control (DMSO instead of test compound; with KRAS mutant::SOS1 GDP mix w/o bead mix; column 24).
As internal control known inhibitors of KRAS mutant::SOS1 interaction can be measured on each compound plate. […]
A general note: Alpha assays give light when donor and acceptor beads are brought close together.

Data set [1] is described as follows: Solubility measurement (DMSO solution method), McIlvaine buffer pH 4.5 or 6.8. Conditions: aqueous buffer, kinetic from dmso stock, DMSO stock diluted to 250 μM, 24 h shaking at ambient temperature. In kind it is physicochemical. An outline of the steps:
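Filtrate concentration by LC-UV, calibrated to a known-concentration reference dissolved completely in acetonitrile/water (1:1). Samples came from 250 µM final dilutions of DMSO stock in pH 4.5 or 6.8 McIlvaine buffer, shaken 24 h at ambient temperature, then filtered.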

[2] abbreviates: MKN-1, assay 3, CTG 120 h, read-out: MKN1 (assay 3) IC50.
Setting [3] is: McIlvaine buffer pH 4.5, read-out: solubility pH 4.5.
Where [4] appears, read: McIlvaine buffer pH 6.8, read-out: solubility pH 6.8.

Values after ≈ are worked out from the molar mass of the structure shown. Like-named read-outs stand apart in the source and are kept apart here. Where only a bound is given, the exact number is not on record here.

Chain of KRAS (WT)::SOS1 (P01116 other isoform, or with tags, fused parts or gaps C118S): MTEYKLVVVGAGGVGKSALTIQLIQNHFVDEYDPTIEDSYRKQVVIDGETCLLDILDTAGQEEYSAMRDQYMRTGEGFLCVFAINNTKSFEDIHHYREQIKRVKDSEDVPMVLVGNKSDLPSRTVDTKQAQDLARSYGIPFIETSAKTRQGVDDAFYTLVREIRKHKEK

As to `C[C@H](Oc1cc(N2CC[C@H](N(C)C)C2)nc(-c2noc3c2CCC[C@@]32CCCc3sc(N)c(C#N)c32)n1)[C@@H]1CCCN1C` [II-49], the 50% inhibitory concentration (IC50) in the data set with MKN1 cells (MKN-1, assay 2, CTG 120 h, read-out: MKN1 (assay 2) IC50) was more than 3000 nM; with MKN1 cells (setting [2]), 501 nM; at KRAS (WT)::SOS1 it was 20 nM. Also, the solubility at 24 h was more than 141 µg/mL in data set [1] (setting [3]) and 114 µg/mL (≈ 189 µM) in data set [1] (setting [4]).

On to `C[C@H](Oc1cc([C@@H]2CCOC2)nc(-c2noc3c2CCC[C@@]32CCCc3sc(N)c(C#N)c32)n1)[C@@H]1CCCN1C` [II-94], for which the IC50 in the data set with MKN1 cells (MKN-1, assay 1, CTG 120 h, read-out: MKN1 (assay 1) IC50) amounted to 32 nM; in the data set with MKN1 cells (setting [2]) it was 51 nM; at KRAS (WT)::SOS1, 3 nM. Moreover, the solubility at 24 h is more than 126 µg/mL in data set [1] (setting [3]) and more than 122 µg/mL in data set [1] (setting [4]).

Turning to `C[C@H](Oc1cc(-n2ccc(-c3ccccn3)n2)nc(-c2noc3c2CCC[C@@]32CCCc3sc(N)c(C#N)c32)n1)[C@@H]1CCCN1C` [II-119], the IC50 in the data set on MKN1 cells (setting [2]) amounted to 252 nM; at KRAS (WT)::SOS1, 6 nM. Further, the solubility at 24 h in data set [1] (setting [3]) and in data set [1] (setting [4]) was less than 1 µg/mL throughout.
